“Also recorded” adds a separate entry of the source.

In assay [1] the test system is LRRK2^G2019S/G2019S KI HEK293 cells. As to the kind of experiment: Mito DNADX mtDNA damage and mtDNA copy number in LRRK2 G2019S/G2019S KI HEK293 cells. Format: cell-based, human. The note with it: for mtDNA copy number / mtDNA damage: LRRK2 G2019S/G2019S KI cells, 2 h; for mtDNA copy number: 10 nM-1 μM. How it is done:
Cells were plated at a density of 0.3 × 10^6 cells in a 6-well dish and treated at ~40–50% confluency. At the time of harvest, cells were collected and either protein collected or DNA extracted as described below.
Following this treatment, “Post-treatment recovery 0 h” samples were collected immediately, or vehicle or MLi-2-containing treatment medium was washed out and replaced with fresh medium and incubated for 2 additional hours and then collected as “Post-treatment recovery 2 h” samples. Isolation, quantitation, and mtDNA damage was performed as described below.
(§1) The tool compound EB-42168 was discovered as part of a small molecule discovery program aimed at identifying LRRK2 kinase inhibitors that are selective for the pathogenic G2019S LRRK2 variant. […] MLi‐2 inhibits WT LRRK2 ~1000‐fold more than EB‐42168[20].
(§2) Cells were collected and the nuclei and mitochondria were isolated as previously described. DNA was extracted from LRRK2-WT and G2019S-LRRK2 cells, and wild-type and LRRK2^G2019S/G2019S KI cells using QuickGene DNA Whole Blood Kit L (Autogen, fk-dbl). PD patient LRRK2 G2019S and healthy subject control-derived LCL DNA was extracted using the QuickGene DNA Tissue Kit L (Autogen, fk-dtl), utilizing a semi-automated system (Autogen, QuickGene-610L). For the Autogen system, the pellet was resuspended in 2 ml of 1X PBS, and the standard manufacturer’s protocol was conducted as if the cell suspension was whole blood. DNA was eluted with EDTA-free buffer, and quality was assessed using a Spectradrop microvolume microplate (Molecular Devices). Double-stranded DNA was quantified using Quant-iT Picogreen dsDNA assay (Thermo Fisher) as previously described.
DNA damage in the mitochondrial genome was measured utilizing Mito DNADX, an assay that we recently developed and described, currently the most robust way of measuring damage in mtDNA[39],[82]. The Mito DNADX assay combines optimized polymerase chain reaction (PCR) parameters using a high-fidelity DNA polymerase and a fluorescent dye that binds to double-stranded DNA that permits the real-time quantification of DNA damage in distinct loci in a 96-well platform. The premise of the Mito DNADX assay involves amplification of a specific mitochondrial PCR fragment in which less PCR product will be amplified when mtDNA damage or lesions block the ability of the DNA polymerase to replicate. As such, mtDNA damage or mtDNA repair intermediates that slow down or impair DNA polymerase progression will be detected. Therefore, equal amounts of sample DNA amplified under identical conditions can be directly compared across conditions to determine the mtDNA lesion frequency. Mitochondrial DNA lesion frequency was performed as previously described. Briefly, 15 ng of DNA was used to amplify long or short amplicons of the mitochondrial genome (as determined by primer sets). The amount of amplification is directly proportional to the number of undamaged DNA templates. Average lesion frequency is calculated as described. Results are presented with the values in experimental samples relative to control samples (normalized to 1 lesion per 10 kb). PCR reactions included KAPA Long Range HotStart DNA Polymerase (KAPA Biosystems)[49]. Each biological DNA sample was analyzed in technical triplicate. Limitations of the Mito DNADX assay have been recently discussed.

The subject of the next assay is healthy control LCLs. As to the kind of experiment: Mito DNADX mtDNA damage and mtDNA copy number in healthy control-derived LCLs. As to conditions: 10 and 100 nM, 2 h. The assay is classed as cell-based, human. The method, then:
(§3) PD patient G2019S LRRK2 (n = 2) and healthy subject control (n = 2)-derived LCLs were obtained from the NINDS Coriell biorepository (ID numbers are ND00011, ND00264, ND01618, ND02559). There was not a statistical difference in the ages between the PD patient and healthy control subjects (p = 0.92). LCLs were cultured at 37 °C, 5% CO2, in RPMI-1640 (Sigma-Aldrich, R8758), 15% heat-inactivated fetal bovine serum (VWR Seradigm, 97068-091) and 0.5% Penicillin/Streptomycin (Corning, 30-002-CI). […] All in vitro experiments were repeated at least three times from distinct samples.
as §1, §2
(§4) DNA damage in the mitochondrial genome was measured utilizing Mito DNADX, an assay that we recently developed and described, currently the most robust way of measuring damage in mtDNA[39],[82]. The Mito DNADX assay combines optimized polymerase chain reaction (PCR) parameters using a high-fidelity DNA polymerase and a fluorescent dye that binds to double-stranded DNA that permits the real-time quantification of DNA damage in distinct loci in a 96-well platform. The premise of the Mito DNADX assay involves amplification of a specific mitochondrial PCR fragment in which less PCR product will be amplified when mtDNA damage or lesions block the ability of the DNA polymerase to replicate. As such, mtDNA damage or mtDNA repair intermediates that slow down or impair DNA polymerase progression will be detected. […] Briefly, 15 ng of DNA was used to amplify long or short amplicons of the mitochondrial genome (as determined by primer sets). […] Average lesion frequency is calculated as described. […] Each biological DNA sample was analyzed in technical triplicate. […]

Assay [2] relates to heterozygous G2019S LRRK2 PD patient-derived LCLs. As to the kind of experiment: Mito DNADX mtDNA damage and mtDNA copy number in G2019S LRRK2 PD patient-derived LCLs. Format: cell-based, human. The note with it: 10 and 100 nM, 2 h. How it is done:
as §3, §1, §2, §4

Another assay relates to G2019S LRRK2. As to conditions: cited from earlier work.

With `CC1=C(C(=O)Nc2ccc3[nH]nc(-c4ccnc(N5CCOCC5)c4)c3c2)C(C)(C)n2nnnc2N1C` [EB-42168], the mtDNA copy number entry in assay [1] is recorded as “reduced”; in assay [1] (listed as EB-42618) it was “modestly decreased”; with healthy control LCLs, “No differences”; in assay [2] it was “No differences”. Moreover, the mtDNA damage result in assay [1] (all concentrations tested (10 nM-1 μM)) is on record as “reversed to wild-type levels”; with healthy control LCLs, “without an effect”; in assay [2] it was “restored to control levels”. Also, the “fold more potent inhibition of G2019S LRRK2 than wild-type LRRK2” value in the assay on G2019S LRRK2 was 100 fold.
`C[C@@H]1CN(c2cc(-c3n[nH]c4ccc(OC5(C)CC5)cc34)ncn2)C[C@H](C)O1` [MLi-2, reference compound]: the “mtDNA copy number after inhibitor washout” value in assay [1] (100 nM for 2 h, washout, 2 h recovery) is “no changes”. The “mtDNA damage phenotype after inhibitor washout” value in assay [1] (KI cells, 100 nM for 2 h, washout, 2 h recovery in media) was “fully re-established”. In assay [1] (KI cells, 100 nM for 2 h then washout), the “time to re-establishment of mtDNA damage phenotype after washout” value is reported as at most 2 h. For the same molecule, the mtDNA copy number result in assay [1] is given as “did not change; also recorded: No effect; also recorded: No changes”; in the assay on healthy control LCLs, “No differences”; in assay [2], “No differences”. Further, the results for the mtDNA damage result (in assay [1] (100 nM); in the assay with healthy control LCLs; in assay [2]) were “reversed mtDNA damage levels to wild-type levels”, “no effect” and “reversed mtDNA damage”, respectively. The “potency in recombinant cell lines expressing WT-LRRK2 or G2019S-LRRK2” value in the assay with G2019S LRRK2 is on record as “equipotent”.

Source of the values: PMC10907374, “G2019S selective LRRK2 kinase inhibitor abrogates mitochondrial DNA damage” (NPJ Parkinson's Disease, 2024).
